Columns and labels:
Format in all cases: in vivo, human
[1] = tested on: patient with low-grade connective tissue symptoms; experiment: Example 5: clarithromycin study, VAS and joint assessment
From the text: In 1991, it was elected to begin the patient on hydroxychloroquine ([…]®, Sanofi-Synthelabo, Inc.) given their low-grade connective tissue symptoms not responding to non-steroidal anti-inflammatory therapy. […] A trial of hydroxychloroquine was again initiated to see how they would tolerate it. […] Hydroxychloroquine was discontinued when they wanted to attempt getting pregnant again. Therapy most recently consisted of non-steroidal inflammatory agents and physical therapy.
On Feb. 27, 2003, the patient agreed to participate in the clarithromycin study. […] The patient was begun on clarithromycin (BIAXIN®, Abbott Laboratories) 500 mg twice per day.

[2] = tested on: patient with undifferentiated connective tissue disease; experiment: Example 1: clinical observation of patient on clarithromycin; details: person
From the text: We elected to continue them on this antibiotic. […] Because the patient was on Lodine (NSAID) at the same time, we elected to see if they could stop the Lodine and still have relief of symptoms.

[3] = tested on: patient with undifferentiated connective tissue disease; experiment: Example 2: clarithromycin re-challenge of Example 1 patient, symptoms and laboratory assessments
Description: Subsequent to the observations made in Example 1, the patient was re-challenged with clarithromycin, and re-evaluated as to symptomatic efficiency. In parallel with clinical observations, laboratory assessments including erythrocyte sedimentation rate, C-reactive protein, and serum interleukins 1 and 6 were measured. The laboratory results are illustrated in Table 1.
On Jul. 29, 2002 the clarithromycin treatment of the patient from Example 1 was discontinued (Table 1). Their additional medications included: ZESTRIL® (Astra Zenica) at 1 mg/t.i.d., CALTRATE® with Vitamin D (Wyeth)/b.i.d., UNITHROID™ (Jerome Stevens Pharmaceuticals, Inc.) at 0.05 mg/day, TROZODONE® (Watson Laboratories, Inc.) at 50 mg/h.s., TYLENOL® (McNeil Consumer Brands) at 1 gm/p.r.n., multi-vitamins/p.r.n., iron tablets, quinine at 260 mg, and non-specific herbs. […] When the patient was observed on Aug. […] The symptoms were sufficiently severe that they asked to be restarted on clarithromycin. When observed on Aug. 15, 2002, they stated they had become “100% better” by Aug. 11, 2002. The patient was continued on clarithromycin at 500 mg b.i.d. and observed serially at weekly intervals on Aug. 22, 2002, Aug. 27, 2002, and Sep. 5, 2002.
These findings are similar to their clinical history over the past several years with respect to clarithromycin therapy and response of connective tissue symptoms.

[4] = Aug. 8, 2002, 10 days off clarithromycin
[5] = Aug. 15, 2002, clarithromycin restarted
[6] = Aug. 22, 2002, on clarithromycin
[7] = Aug. 27, 2002, on clarithromycin
[8] = Jul. 29, 2002, on clarithromycin 500 mg BID
[9] = Sep. 5, 2002, on clarithromycin

Question: What does the source list for `CC[C@H]1OC(=O)[C@H](C)[C@@H](O[C@H]2C[C@@](C)(OC)[C@@H](O)[C@H](C)O2)[C@H](C)[C@@H](O[C@@H]2O[C@H](C)C[C@H](N(C)C)[C@H]2O)[C@](C)(OC)C[C@@H](C)C(=O)[C@H](C)[C@@H](O)[C@]1(C)O` [clarithromycin, 6-O-methylerythromycin]?
Answer: Patient VAS (Pain) ([1]; Visit Three, Apr. 2, 2003, clarithromycin 500 mg twice per day for one month, VAS 0 to 100 mm, baseline 67): 26 mm; joint pain, patient statement ([1]; Visit Three, clarithromycin 500 mg twice per day): became better pretty much right away; joint tenderness and swelling on physical examination ([1]; Visit Three, clarithromycin for one month): decreased joint tenderness and swelling; Tender/Painful Joints ([1]; Visit Three, clarithromycin for one month, baseline 3): 0; Swollen Joints ([1]; Visit Three, clarithromycin for one month, baseline 6): 1; Patient VAS (Global) ([1]; Visit Three, clarithromycin for one month, baseline 30): 12 mm; Practitioner VAS (Global) ([1]; Visit Three, clarithromycin for one month, baseline 54): 25 mm; side reaction ([1]; clarithromycin 500 mg twice per day, one month): metallic taste; Symptoms ([2]; back on 500 mg/bid after 250 mg/bid): improved essentially completely; symptoms with respect to connective tissue changes ([2]; clarithromycin 500 mg b.i.d. begun December 1998): significantly improved; Symptoms ([2]; dose reduced to 250 mg/bid): symptoms returned; undifferentiated connective disease status ([2]; last seen Feb. 12, 2002, continued clarithromycin): under control; joint symptoms ([2]; reduced dose of 750 mg/day): increased swelling of the hands, painful wrists, knee swelling and hand stiffness; ESR [3, 4]: 25 mm/hr; IL-6 [3, 4]: 2.1 pg/mL; Symptoms [3, 4]: generalized joint pain, associated with swelling; Symptoms ([3]; Aug. 15, 2002, clarithromycin 500 mg b.i.d. restarted, better on Aug. 11, 2002): 100% better; CPR [3, 5]: <0.3 mg/dL; ESR [3, 5]: 21 mm/hr; IL-6 [3, 5]: 0.9 pg/mL; CPR [3, 6]: <0.3 mg/dL; ESR [3, 6]: 34 mm/hr; IL-6 [3, 6]: 0.7 pg/mL; Symptoms ([3]; Aug. 22, 2002, on clarithromycin 500 mg b.i.d.): Doing well; CPR [3, 7]: <0.3 mg/dL; ESR [3, 7]: 21 mm/hr; IL-6 [3, 7]: 1.1 pg/mL; Symptoms ([3]; Aug. 27, 2002, on clarithromycin 500 mg b.i.d.): Doing well; CPR [3, 8]: <0.3 mg/dL; ESR [3, 8]: 29 mm/hr; Symptoms ([3]; Jul. 29, 2002, on clarithromycin 500 mg po BID, discontinued at this visit): Good Control; CPR [3, 9]: <0.3 mg/dL; ESR [3, 9]: 34 mm/hr; IL-6 [3, 9]: 1 pg/mL; Symptoms ([3]; Sep. 5, 2002, on clarithromycin 500 mg b.i.d.): Doing well; change in ESR, CRP, Interleukin-1, or Interleukin-6 ([3]; over the re-challenge Jul. 29 to Sep. 5, 2002): no significant change

Reference: US20030207819A1, “Compositions and methods for treating inflammatory connective tissue diseases” (priority 2002, published 2003)
